Measured values taken from article PMC5748531, “Antimycobacterial Activities of N-Substituted-Glycinyl 1H-1,2,3-Triazolyl Oxazolidinones and Analytical Method Development and Validation for a Representative Compound” (Scientia Pharmaceutica, 2017).
Values after ≈ are worked out from the molar mass of the structure shown.

Experiments:
Assay in all cases: microbe, parasite or virus in culture
Format in all cases: cell-based, Mycobacterium tuberculosis
[1] = system: rifampin (RMP)-resistant Mtb (SRI 1367); conditions: for MIC: Mycobacterium tuberculosis, 168 h, read-out: MIC RMP-R, broth microdilution, 7 days at 37 °C
[2] = system: isoniazid (INH)-resistant Mtb (SRI 1369); conditions: for MIC: Mycobacterium tuberculosis, 168 h, read-out: MIC INH-R, broth microdilution, 7 days at 37 °C
[3] = system: ofloxacin (OFX)-resistant Mtb (SRI 4000); conditions: for MIC: Mycobacterium tuberculosis, 168 h, read-out: MIC OFX-R, broth microdilution, 7 days at 37 °C; for MIC OFX-R: broth microdilution, 7 days at 37 °C
[4] = broth microdilution, 7 days at 37 °C

| Compound | MIC [1] | MIC [2] | MIC [3] | MIC RMP-R [1, 4] | MIC OFX-R [3] | MIC INH-R [2, 4] |
| --- | --- | --- | --- | --- | --- | --- |
| NNC(=O)c1ccncc1 [INH, Isoniazid, reference compound] | 0.15 µM (≈ 0.0206 µg/mL) | – | – | – | – | – |
| CCOC(=O)CC(=O)NCC(=O)N1CCN(c2ccc(N3CC(Cn4ccnn4)OC3=O)cc2F)CC1 (stereo not drawn) [PH-169] | 1.45 µM (≈ 0.75 µg/mL) | 1.45 to 2.9 µM (≈ 0.75 to 1.5 µg/mL) | 1.45 µM (≈ 0.75 µg/mL) | – | – | – |
| O=C(NCC(=O)N1CCN(c2ccc(N3CC(Cn4ccnn4)OC3=O)cc2F)CC1)c1cccnc1 (stereo not drawn) [PH-195] | 0.98 µM (≈ 0.498 µg/mL) | 2 µM (≈ 1.02 µg/mL) | 0.49 µM (≈ 0.249 µg/mL) | – | – | – |
| CCOC(=O)CC(=O)NCC(=O)N1CCN(c2ccc(N3CC(Cn4cc(C)nn4)OC3=O)cc2F)CC1 (stereo not drawn) [PH-150] | 2.9 µM (≈ 1.54 µg/mL) | 2.9 µM (≈ 1.54 µg/mL) | 2.9 µM (≈ 1.54 µg/mL) | – | – | – |
| Cc1cn(CC2CN(c3ccc(N4CCN(C(=O)CNC(=O)c5cccnc5)CC4)c(F)c3)C(=O)O2)nn1 (stereo not drawn) [PH-185] | 5.7 µM (≈ 2.98 µg/mL) | 2.9 µM (≈ 1.52 µg/mL) | 1.44 µM (≈ 0.752 µg/mL) | – | – | – |
| CO[C@H]1/C=C/O[C@@]2(C)Oc3c(C)c(O)c4c(O)c(c(/C=N/N5CCN(C)CC5)c(O)c4c3C2=O)NC(=O)/C(C)=C\C=C\[C@H](C)[C@H](O)[C@@H](C)[C@@H](O)[C@@H](C)[C@H](OC(C)=O)[C@@H]1C [RMP, Rifampicin, reference compound] | – | 0.06 µM (≈ 0.0494 µg/mL) | 0.95 µM (≈ 0.782 µg/mL) | – | – | – |
| CC(=O)NCC(=O)N1CCN(c2ccc(N3CC(Cn4ccnn4)OC3=O)cc2F)CC1 (stereo not drawn) [PH-165] | 6.7 µM (≈ 2.98 µg/mL) | 4.5 µM (≈ 2 µg/mL) | 3.4 µM (≈ 1.51 µg/mL) | – | – | – |
| O=C(NCC(=O)N1CCN(c2ccc(N3CC(Cn4ccnn4)OC3=O)cc2F)CC1)c1cc([N+](=O)[O-])cc([N+](=O)[O-])c1 (stereo not drawn) [PH-193] | 0.22 µM (≈ 0.131 µg/mL) | 0.42 µM (≈ 0.251 µg/mL) | 0.052 µM (≈ 0.0311 µg/mL) | – | – | – |
| Cc1cn(CC2CN(c3ccc(N4CCN(C(=O)CNC(=O)C(Cl)Cl)CC4)c(F)c3)C(=O)O2)nn1 (stereo not drawn) [PH-182] | 0.95 µM (≈ 0.502 µg/mL) | 0.95 µM (≈ 0.502 µg/mL) | 0.47 µM (≈ 0.248 µg/mL) | – | – | – |
| Cc1cn(CC2CN(c3ccc(N4CCN(C(=O)CNC(=O)c5ccc([N+](=O)[O-])o5)CC4)c(F)c3)C(=O)O2)nn1 (stereo not drawn) [PH-145] | 0.11 to 0.46 µM (≈ 0.0612 to 0.256 µg/mL) | 0.056 to 0.11 µM (≈ 0.0312 to 0.0612 µg/mL) | 0.03 to 0.056 µM (≈ 0.0167 to 0.0312 µg/mL) | 0.11 µM (≈ 0.0612 µg/mL) | 0.056 µM (≈ 0.0312 µg/mL) | – |
| Cc1cn(CC2CN(c3ccc(N4CCN(C(=O)CNC(=O)c5cc([N+](=O)[O-])cc([N+](=O)[O-])c5)CC4)c(F)c3)C(=O)O2)nn1 (stereo not drawn) [PH-181] | 0.82 µM (≈ 0.501 µg/mL) | 0.85 to 1.64 µM (≈ 0.52 to 1 µg/mL) | 0.82 µM (≈ 0.501 µg/mL) | – | – | – |
| Cc1cn(CC2CN(c3ccc(N4CCN(C(=O)CN)CC4)c(F)c3)C(=O)O2)nn1 (stereo not drawn) [PH-151] | 5.8 µM (≈ 2.42 µg/mL) | 11.6 µM (≈ 4.84 µg/mL) | 11.6 µM (≈ 4.84 µg/mL) | – | – | – |
| O=C(NCC(=O)N1CCN(c2ccc(N3CC(Cn4ccnn4)OC3=O)cc2F)CC1)c1ccc([N+](=O)[O-])o1 (stereo not drawn) [PH-189] | – | 0.056 to 0.11 µM (≈ 0.0304 to 0.0597 µg/mL) | 0.03 to 0.056 µM (≈ 0.0163 to 0.0304 µg/mL) | – | 0.03 µM (≈ 0.0163 µg/mL) | 0.057 to 0.12 µM |
| NCC(=O)N1CCN(c2ccc(N3CC(Cn4ccnn4)OC3=O)cc2F)CC1 (stereo not drawn) [PH-172] | 3.6 µM (≈ 1.45 µg/mL) | 7.2 µM (≈ 2.9 µg/mL) | 3.6 µM (≈ 1.45 µg/mL) | – | – | – |
